For test [1], the target named is GABAA receptor complex (GRC). As to the kind of experiment: [35S]TBPS binding assay, rat cortex. The following applies: 2 nM [35S]TBPS, rat cortex; for IC50: read-out: IC50 (inhibition of [35S]TBPS binding); for % Inhibition of 2 nM TBPS in Rat Cortex at 10 μM: 10 μM compound, plain numbers = inhibition.
In test [2] the test system is GABAA receptor complex (GRC). The test is described as follows: [35S]TBPS binding dissociation, mouse forebrain. The following applies: 2 nM [35S]TBPS, initiated by 10 μM compound 3, 10 μM mefenamic acid, FIG. 13.
Test [3] relates to GABAA receptor complex (GRC). The test is described as follows: [35S]TBPS binding, rat cerebellum. Conditions: 2 nM [35S]TBPS, 30 μM furosemide, FIG. 14.

By IC50 is commonly meant the point on the concentration scale where inhibition reaches its midpoint. With `CCn1cc(C(=O)O)c(=O)c2cc(NC(C)CCc3ccccc3)c(Cl)cc21` (stereo not drawn), in test [1], the IC50 was 2000 nM and the “% Inhibition of 2 nM TBPS in Rat Cortex at 10 μM” value (“% Inhibition of 2 nM TBPS” for short) was found to be 84%.
`CCn1cc(C(=O)O)c(=O)c2cc(F)c(N3CCNCC3)cc21` [norfloxacin, reference compound]: in test [1] (30 μM and 100 μM norfloxacin, FIG. 9), the “effect on [35S]TBPS binding in absence or presence of norfloxacin” value was “inability of norfloxacin to produce a dose-dependent rightward parallel shift”.
Take `Cc1cccc(Nc2ccccc2C(=O)O)c1C` [mefenamic acid, reference compound]: the “dissociation of [35S]TBPS binding in absence or presence of mefenamic acid” value in test [2] was “accelerate the dissociation of [^35S]TBPS binding”.
On to `NS(=O)(=O)c1cc(C(=O)O)c(NCc2ccco2)cc1Cl` [furosemide, reference compound], for which, in test [3], the “effect on [35S]TBPS binding in absence or presence of furosemide” value is “inability of furosemide to produce a dose-dependent rightward parallel shift”.
Regarding `CCn1cc(C(=O)O)c(=O)c2cc(NCC(C)c3ccccc3)c(Cl)cc21` (stereo not drawn), in test [1], the IC50 was 4000 nM and the “% Inhibition of 2 nM TBPS” value is reported as 65%.
As for `CCCNC(=O)c1cn(CC)c2cc(Cl)c(NC3CCCc4ccccc43)cc2c1=O` (stereo not drawn), in test [1], the IC50 was determined as 1500 nM and the “% Inhibition of 2 nM TBPS” value was found to be 86%.
Regarding `CCOC(=O)c1cn(CC)c2cc(Cl)c(NC3CCCc4ccccc43)cc2c1=O` (stereo not drawn), in test [1], the IC50 was 880 nM.
Take `CCn1cc(C(=O)O)c(=O)c2cc(NC3CCCc4ccccc43)c(Cl)cc21` (stereo not drawn) [drawing 15]: in test [1], the half-inhibitory concentration (IC50) was 2700 nM and the “% Inhibition of 2 nM TBPS” value came to 70%.
Consider `CCCC(C)C1(CC)C(=O)NC(=O)NC1=O` (stereo not drawn) [pentobarbital, reference compound], for which, in test [1] (initiated by 10 μM compound 3, 30 μM pentobarbital, FIG. 10), the “dissociation of [35S]TBPS binding in absence or presence of pentobarbital” value was “accelerate the dissociation of [^35S]TBPS binding”.
As to `C[C@H](O)[C@H]1CC[C@H]2[C@@H]3CC[C@H]4C[C@H](O)CC[C@]4(C)[C@H]3CC[C@]12C` [5α,20α-diol, 5α-pregnan-3α,20α-diol, reference compound], the “interaction with 5α,20α-diol inhibition of [35S]TBPS binding (neurosteroid site)” value in test [1] (10 μM compound 3 or 100 nM 3α,5α-P, FIG. 8) is “antagonize the effect of 3α,5α-P”.
Turning to `CN1C(=O)CN=C(c2ccc(Cl)cc2)c2cc(Cl)ccc21` [4′-chlorodiazepam, reference compound], in test [1] (0.3, 1 and 30 μM Ro5-4864, FIG. 11), the “effect on [35S]TBPS binding in absence or presence of Ro5-4864 (4′-chlorodiazepam)” value is given as “inability of 4′-chlorodiazepam to produce a dose-dependent rightward parallel shift”.
